In patent US8034606B2, “Acid tolerant Lactobacillus sakei probio-65 with the ability of growth suppression of pathogenic microorganisms and the anti-allergic effect” (priority 2005, dated 2011):

System: Lactobacillus sakei Probio-65
Test: Antibiotic sensitivity test of the strain against fourteen antibiotics
Assay type: cell-based
Conditions: for Diameter: antibiotic amount 2 to 250 μg depending on antibiotic, compared with Resistance (mm); for Results: antibiotic amount (μg), resistant or susceptible by diameter (mm)

| Compound | Diameter [mm] | Results |
| --- | --- | --- |
| Neomycin | 9 | R |
| Gentamicin | 9 | R |
| Cc1noc(NS(=O)(=O)c2ccc(N)cc2)c1C [Sulfisoxzazole] | 0 | R |
| CC1(C)S[C@@H]2[C@H](NC(=O)Cc3ccccc3)C(=O)N2[C@H]1C(=O)O [Penicillin G] | 20 |  |
| CN(C)c1ccc(O)c2c1C[C@H]1C[C@H]3[C@H](N(C)C)C(O)=C(C(N)=O)C(=O)[C@@]3(O)C(O)=C1C2=O [Minocyclin] | 26 | S |
